pEC50: −log10 of the molar value. Positions of bridges follow the written chain, without caps; N, C: chain ends. Non-standard residues stand in square brackets, D forms with d. Residues, ends and D or L forms follow the SMILES beside them. 1Nal = N[C@@H](Cc1cccc2ccccc12)C(=O)O; d2Nal = N[C@H](Cc1ccc2ccccc2c1)C(=O)O; 2Pal = N[C@@H](Cc1ccccn1)C(=O)O; 4Pal = N[C@@H](Cc1ccncc1)C(=O)O; Cit = NC(=O)NCCC[C@H](N)C(=O)O; Nle = CCCC[C@H](N)C(=O)O; Aib = CC(C)(N)C(=O)O
How the values were obtained:
Type in all cases: cell-based
human MC3R = target: T1, human MC3R (Homo sapiens, UniProt P41968); assay: split-luciferase cAMP sensor assay, agonist mode (measurement window 1), hMC3R; conditions: for Emax: % maximal activation, read-out: MC3R cAMP % max activation; for Emax / pEC50: agonist mode; for MC4R selectivity vs MC3R: MC4R versus MC3R; for pEC50: HEK-293 cells stably expressing hMC3R, read-out: MC3R cAMP EC50
T1 construct: expressed in transfected cells; host or cells: HEK-293 cells stably expressing the GScAMP22F split-luciferase cAMP sensor (parent reporter line from Promega); MC3R clone generated in-house, G418 selection
In short: (§1)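 EC50 values come from a four-parameter variable-slope fit of luminescence in measurement window 1, capturing direct peptide effects on receptor-expressing cells with a cAMP22f luciferase sensor. Cells were preloaded with 4% D-luciferin, serum-free medium; 20 μM forskolin normalized for cell number and transducer efficiency.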

human MC1R = target: T2, human MC1R (Homo sapiens, UniProt Q01726); assay: split-luciferase cAMP sensor assay, agonist mode, hMC1R; conditions: MC4R versus MC1R
T2 construct: expressed in transfected cells; host or cells: HEK-293 cells stably expressing hMC1R and the GScAMP22F cAMP sensor
In short: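 HEK-293 cells stably expressing hMC1R and the GScAMP22F split-luciferase cAMP sensor, preloaded 120 min at 37° C with D-luciferin in serum-free medium. Peptide responses were taken as peak luminescence over 2-13 min minus 2-min baseline, normalized to the α-MSH ECmax. EC50 was obtained from a four-parameter variable-slope fit.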

human MC4R = target: T3, human MC4R (Homo sapiens, UniProt P32245); assay: split-luciferase cAMP sensor assay, agonist mode (measurement window 1), hMC4R; conditions: agonist mode; for Emax: % maximal activation, read-out: MC4R cAMP % max activation; for pEC50: HEK-293 cells stably expressing hMC4R, read-out: MC4R cAMP EC50
T3 construct: host or cells: HEK-293 cells stably expressing the GScAMP22F split-luciferase cAMP sensor and hMC4R, G418 selection
In short: as §1

T3 sequence (P32245 whole entry): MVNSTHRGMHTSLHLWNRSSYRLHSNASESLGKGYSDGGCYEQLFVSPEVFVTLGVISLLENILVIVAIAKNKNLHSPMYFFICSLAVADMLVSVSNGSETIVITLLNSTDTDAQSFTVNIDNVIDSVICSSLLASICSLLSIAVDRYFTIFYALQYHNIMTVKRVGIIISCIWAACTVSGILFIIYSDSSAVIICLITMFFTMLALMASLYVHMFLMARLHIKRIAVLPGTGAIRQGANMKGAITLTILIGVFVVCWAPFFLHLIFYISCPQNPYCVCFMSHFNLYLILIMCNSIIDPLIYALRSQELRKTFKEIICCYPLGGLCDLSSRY
T1 sequence (P41968 whole entry): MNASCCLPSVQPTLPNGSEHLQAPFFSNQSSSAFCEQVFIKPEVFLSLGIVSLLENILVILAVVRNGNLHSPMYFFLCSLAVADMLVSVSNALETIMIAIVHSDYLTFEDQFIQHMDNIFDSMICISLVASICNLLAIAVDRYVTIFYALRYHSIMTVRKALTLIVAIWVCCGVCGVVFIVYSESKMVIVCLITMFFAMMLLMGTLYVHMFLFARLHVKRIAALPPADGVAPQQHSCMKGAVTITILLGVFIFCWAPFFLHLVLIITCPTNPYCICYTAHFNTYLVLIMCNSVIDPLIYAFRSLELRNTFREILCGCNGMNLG
T2 sequence (Q01726 whole entry): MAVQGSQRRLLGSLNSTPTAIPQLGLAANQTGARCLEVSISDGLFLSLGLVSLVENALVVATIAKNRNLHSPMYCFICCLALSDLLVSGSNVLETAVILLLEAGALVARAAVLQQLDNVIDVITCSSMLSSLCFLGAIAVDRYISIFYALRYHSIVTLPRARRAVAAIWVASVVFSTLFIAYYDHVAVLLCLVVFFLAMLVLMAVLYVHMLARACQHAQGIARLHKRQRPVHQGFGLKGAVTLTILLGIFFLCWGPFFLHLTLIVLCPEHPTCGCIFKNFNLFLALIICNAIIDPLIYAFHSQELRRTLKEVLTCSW

| Structure (SMILES) | Emax (human MC3R) | MC4R selectivity vs MC3R (human MC3R) | MC4R selectivity vs MC1R (human MC1R) | Emax (human MC4R) | pEC50 (human MC4R) | pEC50 (human MC3R) |
| --- | --- | --- | --- | --- | --- | --- |
| CC(=O)N[C@H]1CSSC[C@@H](C(N)=O)NC(=O)[C@H](Cc2ccccc2)NC(=O)[C@H](CCCNC(=N)N)NC(=O)[C@@H](Cc2ccccc2)NC(=O)[C@H](CCCNC(=N)N)NC(=O)C(C)(C)NC1=O [CTX-1635, cyclo(Cys-Aib-Arg-D-Phe-Arg-Phe-Cys)] (Ac-C[Aib]R[dF]RFC-NH2; disulfide 1-7 (inferred)) | 70% | 5.7 | 1.19 | 112% |  |  |
| CCCC[C@H](NC(=O)[C@H](CCCNC(=N)N)NC(C)=O)C(=O)N[C@H]1CSSC[C@@H](C(N)=O)NC(=O)[C@@H](Cc2c[nH]c3ccccc23)NC(=O)[C@H](CCCNC(=N)N)NC(=O)[C@@H](Cc2ccccc2)NC(=O)[C@H](CCCNC(N)=O)NC1=O [CTX-1608, Arg-Nle-cyclo(Cys-Cit-D-Phe-Arg-D-Trp-Cys)] (Ac-R[Nle]C[Cit][dF]R[dW]C-NH2; disulfide 3-8 (inferred)) | 19% | 0.95 | 2.07 | 79% | 6.54 |  |
| CCCC[C@H](NC(=O)[C@H](CCCNC(=N)N)NC(C)=O)C(=O)N[C@H]1CSSC[C@@H](C(N)=O)NC(=O)[C@H](Cc2c[nH]c3ccccc23)NC(=O)[C@H](CCCNC(=N)N)NC(=O)[C@H](Cc2cccc3ccccc23)NC(=O)[C@H](Cc2c[nH]cn2)NC1=O [CTX-1610, Arg-Nle-cyclo(Cys-His-Nal(1′)-Arg-Trp-Cys)] (Ac-R[Nle]CH[1Nal]RWC-NH2; disulfide 3-8) | 67% | 0.66 | 0.03 | 90% |  |  |
| CC1(C)NC(=O)CSC[C@@H](C(N)=O)NC(=O)[C@H](Cc2c[nH]c3ccccc23)NC(=O)[C@H](CCCNC(=N)N)NC(=O)[C@@H](Cc2ccccc2)NC(=O)[C@H](Cc2c[nH]cn2)NC1=O [CTX-1647, Thioether-cyclo(Aib-His-D-Phe-Arg-Trp-Cys)] | 102% | 30 | 3.66 | 109% |  |  |
| CC[C@H]1NC(=O)[C@@H](NC(=O)[C@H](CCCNC(=N)N)NC(C)=O)CSSC[C@@H](C(N)=O)NC(=O)[C@H](Cc2c[nH]c3ccccc23)NC(=O)[C@H](CCCNC(=N)N)NC(=O)[C@@H](Cc2ccccc2)NC(=O)[C@H](Cc2c[nH]cn2)NC1=O [CTX-1295, Arg-cyclo(Cys-D-Abu-His-D-Phe-Arg-Trp-Cys)] | 97% | 6.31 | 2.79 | 102% | 9.60 | 8.80 |
| CCCC[C@H](NC(=O)[C@H](CCCNC(=N)N)NC(C)=O)C(=O)N[C@H]1CSSC[C@@H](C(N)=O)NC(=O)[C@@H](Cc2c[nH]c3ccccc23)NC(=O)[C@H](CCCNC(=N)N)NC(=O)[C@@H](Cc2ccccc2)NC(=O)[C@H](CCCNC(=N)N)NC1=O [CTX-1616, Arg-Nle-cyclo(Cys-Arg-D-Phe-Arg-D-Trp-Cys)] (Ac-R[Nle]CR[dF]R[dW]C-NH2; disulfide 3-8) | 78% | 3.78 | 1.51 | 93% | 7.80 |  |
| CC1(C)NC(=O)CSC[C@@H](C(N)=O)NC(=O)[C@H](Cc2ccccc2)NC(=O)[C@H](CCCNC(=N)N)NC(=O)[C@@H](Cc2ccccc2)NC(=O)[C@H](CCCNC(N)=O)NC1=O [CTX-1652, Thioether-cyclo(Aib-Cit-D-Phe-Arg-Phe-Cys)] ({CH2CO}-[Aib][Cit][dF]RFC-NH2; thioether N-6) |  | Not active | Not active |  | < 5.00 | < 5.00 |
| CC(=O)N[C@@H](CCCNC(=N)N)C(=O)N[C@H]1CSSC[C@@H](C(N)=O)NC(=O)[C@H](Cc2ccccc2)NC(=O)[C@H](CCCNC(=N)N)NC(=O)[C@@H](Cc2ccccc2)NC(=O)[C@H](Cc2ccccn2)NC(=O)C(C)(C)NC1=O [CTX-1604, Arg-cyclo(Cys-Aib-Pal(2′)-D-Phe-Arg-Phe-Cys)] (Ac-RC[Aib][2Pal][dF]RFC-NH2; disulfide 2-8 (inferred)) | 12% | 0.11 | 3.66 | 96% |  |  |
| CCCC[C@H](NC(=O)[C@H](CCCNC(=N)N)NC(C)=O)C(=O)N[C@H]1CSSC[C@@H](C(N)=O)NC(=O)[C@H](Cc2c[nH]c3ccccc23)NC(=O)[C@H](CCCNC(=N)N)NC(=O)[C@@H](Cc2ccccc2)NC(=O)[C@H](Cc2ccccn2)NC1=O [CTX-1619, Arg-Nle-cyclo(Cys-Pal(2′)-D-Phe-Arg-Trp-Cys)] (Ac-R[Nle]C[2Pal][dF]RWC-NH2; disulfide 3-8 (inferred)) | 84% | 13 | 86 | 99% | 8.59 |  |
| CC(=O)N[C@H]1CSSC[C@@H](C(N)=O)NC(=O)[C@H](Cc2ccccc2)NC(=O)[C@H](CCCNC(=N)N)NC(=O)[C@@H](Cc2ccccc2)NC(=O)[C@H](CCCNC(N)=O)NC(=O)C(C)(C)NC1=O [CTX-1636, cyclo(Cys-Aib-Cit-D-Phe-Arg-Phe-Cys)] (Ac-C[Aib][Cit][dF]RFC-NH2; disulfide 1-7 (inferred)) | 44% | 9.44 | >12 | 102% |  |  |
| CCCC[C@H](NC(=O)[C@H](CCCNC(=N)N)NC(C)=O)C(=O)N[C@H]1CSSC[C@@H](C(N)=O)NC(=O)[C@H](Cc2c[nH]c3ccccc23)NC(=O)[C@H](CCCNC(=N)N)NC(=O)[C@@H](Cc2ccccc2)NC(=O)[C@H](Cc2ccncc2)NC1=O [CTX-1621, Arg-Nle-cyclo(Cys-Pal(4′)-D-Phe-Arg-Trp-Cys)] (Ac-R[Nle]C[4Pal][dF]RWC-NH2; disulfide 3-8 (inferred)) | 15% | 13 | 82 | 92% | 8.54 |  |
| C[C@H]1NC(=O)CSC[C@@H](C(N)=O)NC(=O)[C@H](Cc2c[nH]c3ccccc23)NC(=O)[C@H](CCCNC(=N)N)NC(=O)[C@@H](Cc2ccccc2)NC(=O)[C@H](CCCNC(N)=O)NC1=O [CTX-1643, Thioether-cyclo(D-Ala-Cit-D-Phe-Arg-Trp-Cys)] ({CH2CO}-[dA][Cit][dF]RWC-NH2; thioether N-6) | 81% | 133 | 261 | 111% |  |  |
| CC1(C)NC(=O)CSC[C@@H](C(N)=O)NC(=O)[C@H](Cc2ccccc2)NC(=O)[C@H](CCCNC(=N)N)NC(=O)[C@@H](Cc2ccccc2)NC(=O)[C@H](CCCNC(=N)N)NC1=O [CTX-1651, Thioether-cyclo(Aib-Arg-D-Phe-Arg-Phe-Cys)] ({CH2CO}-[Aib]R[dF]RFC-NH2; thioether N-6) |  | >8 | 1.45 | 92% |  | < 5.00 |
| CC(=O)N[C@@H](CCCNC(=N)N)C(=O)N[C@H]1CSSC[C@@H](C(N)=O)NC(=O)[C@@H](Cc2ccc3ccccc3c2)NC(=O)[C@H](CCCNC(=N)N)NC(=O)[C@@H](Cc2ccccc2)NC(=O)[C@H](CCCNC(=N)N)NC(=O)[C@@H](C)NC1=O [CTX-1264, Arg-cyclo(Cys-D-Ala-Arg-D-Phe-Arg-D-Nal(2′)-Cys)] (Ac-RC[dA]R[dF]R[d2Nal]C-NH2; disulfide 2-8 (inferred)) | 44% | 0.29 | 0.14 | 80% | 7.89 | 8.43 |

Source: US20240391954A1, “MC4R AGONIST PEPTIDES” (The Regents of the University of Michigan, priority 2021, published 2024)
